{"source": "patent US8936809B2", "about": "“Method for treating prostate diseases based on local delivery of active substances” (Lidds AB, priority 2005, dated 2015)", "key": {"dog prostate tissue": {"tested_on": "dog prostate tissue", "assay": "Macroscopic anti-proliferate effect on dog prostate tissue: volume before, weight after, palpation (Example 1)", "format": "in vivo", "design": "key to Palpation: 0 = no effect; + = mild effect; ++ = intermediate; +++ = strong effect", "conditions": "for Weight of prostate tissue (after): termination after day 20", "excerpt": "After day 20, each dog was terminated with an intravenous dose of a mixture of pentobarbital and potassium. The following organs were surgical removed and frozen: prostate, testis, liver and kidney for the assessment of effect and safety. These organs were carefully examined as a consequence of the local tissue exposure of 2-hydroxy-flutamide and the ceramic-based implant. The macroscopic pharmacological anti-proliferate effect of 2-hydroxy-flutamide was examined as the volume-weight ratio of the dog prostate tissue before and after the local administration of 2-hydroxy-flutamide as a single controlled release pharmaceutical composition."}, "[1]": {"assay": "Observation of behaviour and side effects (diarrhea) in dogs (Example 1)", "format": "in vivo, dog", "description": "First, four male dogs (H1-H4) (Labrador, approx. 1 year of age and weight 30 kg) were given 2-hydroxy-flutamide (25 mg) by single bolus doses intravenously during 30 seconds. The intravenous solution base was sterile saline […], sterile polyethylene glycol 400 46% and ethanol (95%) 6%. Blood samples of 1.0 ml were taken from the Cephalic vein at 5, 10, 15, 30, 60, 90, 120, 240, 360, and 600 minutes. The blood samples were immediately centrifuged at 3000 rpm and the plasma samples were frozen at −80° C. until analysis.\nOne week later, the same animals were given 2-hydroxy-flutamide locally by a controlled release pharmaceutical composition in the prostate tissue. The 2-hydroxy- flutamide doses were 0 mg (H1), 30 mg (H3), 60 mg (H2) and 120 mg (H4), and each dog was given one implant only. Where H1 was a control given the composition without 2-hydroxy-flutamide. All doses of 2-hydroxy-flutamide were given after an overnight fast. Dog 1 (H1) and dog 3 (H3) were given an enema preoperatively. After the local prostate application of the pharmaceutical composition through rectum, an antibiotic (Quinolon) was administered in normal doses."}, "[2]": {"assay": "Plasma pharmacokinetics and tissue level after controlled release implant into bulbourethral gland of male sheep (Example 2)", "format": "in vivo", "description": "(§1) The major purpose of the present animal study was to examine the pharmacokinetics, efficacy and safety of the novel local drug delivery system with 2-hydroxyflutamide, a selective antagonist to the androgen receptor (AR). A ceramic based drug delivery product was administered into an androgen dependent tissue (the bulbourethral gland) in male sheep. In total 11 male sheep were divided into two separate groups. One group was given 2-hydroxyflutamide by the local implant delivery system as a single administration into the bulbourethral gland and was monitored during 2 months. Each sheep in this treatment group received the prostate implant by a single dose of 250 mg. The other group only received ceramic formulation without any active drug substance.\nThe implant drug delivery system was inserted locally, via rectum, into the androgen dependent tissue (bulbourethral gland) through sterile needles during rectal ultrasound guidance. The animals were during anaesthesia throughout the insertion procedure. The sterile ceramic based implant had two major components: calcium sulphate (CaSO4-0.5H2O) and 2-hydroxyflutamide. The composition of the formulation was 250 mg 2-hydroxyflutamide+2.25 g calcium sulphate di-hydrate+5.0 g calcium sulphate hemi-hydrate and it was mixed with solution: 3.5 ml of water solution (with 1% acetic acid and 1% methyl cellulose). […] The amount injected into each lobe of the androgen sensitive bulbourethral gland was about 2.0-3.0 ml.\nQuantification of 2-hydroxy-flutamide in plasma samples was done by HPLC-MS. HPLC was performed with a Surveyor HPLC system equipped with a CTC Pal autosampler. The analytical column was a Zorbax Eclipse XDB-18 (2.1 mm×50 mm, particle size 5 μm) connected to a guard column. The calibration curves were constructed by linear regression of the peak area ratio of 2-hydroxy-flutamide and internal standard as a function of 2-hydroxy-flutamide concentrations. The method performance was studied using quality control (QC) samples, which were prepared by spiking blank plasma with 2-hydroxy-flutamide.\nSheep plasma (unknown, QC or calibration sample) at a volume of 100 μL was mixed with 100 μL of internal standard solution (nilutamide at 0.025 μg/mL) and 250 μL of acetonitrile. A subsequent vortex mix was performed for 20 seconds followed by a centrifugation for 10 minutes. […] of the supernatant was transferred to a clean test tube and evaporated to dryness at 50° C. in a gentle stream of nitrogen. The residue was reconstituted in 100 μL aqueous formic acid (0.1%) and transferred to a vial for LC-MS/MS analysis.\nThe formulation was successfully administered in 11 male sheep. Based on the plasma exposure profile the pharmacokinetic variables were calculated with standard methods (Table 4)."}, "[3]": {"tested_on": "androgen dependent tissue (bulbourethral gland)", "assay": "Local anti-androgen effect and side effects after implant into bulbourethral gland of male sheep (Example 2)", "format": "in vivo", "description": "as §1\nThe implant drug delivery system was inserted locally, via rectum, into the androgen dependent tissue (bulbourethral gland) through sterile needles during rectal ultrasound guidance. The animals were during anaesthesia throughout the insertion procedure. The sterile ceramic based implant had two major components: calcium sulphate (CaSO4-0.5H2O) and 2-hydroxyflutamide. The composition of the formulation was 250 mg 2-hydroxyflutamide+2.25 g calcium sulphate di-hydrate+5.0 g calcium sulphate hemi-hydrate and it was mixed with solution: 3.5 ml of water solution (with 1% acetic acid and 1% methyl cellulose). […]"}, "prostate tissue": {"tested_on": "prostate tissue", "assay": "Efficacy and safety of local prostate implant in male beagle dogs: side effects, urinated volume, histopathology (Example 3)", "format": "in vivo, dog", "description": "The major purpose of the present animal study was to examine the efficacy and safety of the new local drug delivery system with 2-hydroxyflutamide, a selective antagonist of the androgen receptor (AR) as the active moiety in human prostate tissue during various treatment periods in male dogs. The dog has been selected as the test model because of its proven suitability in this type of study. The study was performed in 12 male beagle dogs from Harlan Winkelmann GmbH, Germany. The sterile controlled release implant was composed of ceramic compounds and 2-hydroxyflutamide. Storage and handling instructions were given. The composition of the formulation of the low and high dose was 250 mg of 2-hydroxyflutamide +2.25 g calcium sulphate […] +5.0 g calcium sulphate hemi-hydrate and it was mixed with solution: 3.5 ml of water solution (with 1% acetic acid and 1% methyl cellulose). The final formulation work was done during sterile conditions by trained personal at the experimental day. […] The animals were fasted for at least 12 hours prior to the insertion procedure on Day 1. The implant drug delivery system was inserted locally into the prostate tissue, via rectum, through sterile needles during rectal ultrasound guidance. Each animal was under anesthesia during the insertion procedure."}, "[4]": {"conditions": "male sheep plasma, 250 mg implant into bulbourethral gland, individual animals"}, "[5]": {"conditions": "local prostate implant 250 mg or 500 mg"}}, "note": "Several values for one entry are separate records, joined by “and”; a condition that tells them apart may be missing. Equal entries are not always repeated. Where two headings read alike, the source gives them in different places."}
{"smiles": "CC(C)(O)C(=O)Nc1ccc([N+](=O)[O-])c(C(F)(F)F)c1", "note": "[2-hydroxy-flutamide]", "values": [{"measurement": "Palpation", "setting": "dog prostate tissue; dog H2, 60 mg local prostate implant", "value": "++"}, {"measurement": "Weight of prostate tissue (after)", "setting": "dog prostate tissue; dog H2, after local administration of 60 mg", "value": 13, "unit": "g"}, {"measurement": "volume of prostate tissue (before)", "setting": "dog prostate tissue; dog H2, before local administration of 60 mg", "value": 13.3, "unit": "cm^3"}, {"measurement": "Palpation", "setting": "dog prostate tissue; dog H3, 30 mg local prostate implant", "value": 0}, {"measurement": "Weight of prostate tissue (after)", "setting": "dog prostate tissue; dog H3, after local administration of 30 mg", "value": 17, "unit": "g"}, {"measurement": "volume of prostate tissue (before)", "setting": "dog prostate tissue; dog H3, before local administration of 30 mg", "value": 12.4, "unit": "cm^3"}, {"measurement": "Palpation", "setting": "dog prostate tissue; dog H4, 120 mg local prostate implant", "value": "+++"}, {"measurement": "Weight of prostate tissue (after)", "setting": "dog prostate tissue; dog H4, after local administration of 120 mg", "value": 13, "unit": "g"}, {"measurement": "volume of prostate tissue (before)", "setting": "dog prostate tissue; dog H4, before local administration of 120 mg", "value": 11.3, "unit": "cm^3"}, {"measurement": "anti-proliferate effect", "setting": "dog prostate tissue; dogs, local prostate implant, three weeks", "value": "clear anti-proliferate effect"}, {"measurement": "macroscopic effect based on volume (before) and weight (after)", "setting": "dog prostate tissue; two higher doses (60 mg, H2 and 120 mg, H4) in comparison with placebo (H1) and low dose (30 mg, H3)", "value": "resulted in a macroscopic effect"}, {"measurement": "diarrhea", "setting": "[1]; after intravenous administration 25 mg", "value": "all dogs suffered from diarrhea"}, {"measurement": "diarrhea", "setting": "[1]; after local administration of the controlled release composition in the prostate tissue", "value": "not observed in any animals"}, {"measurement": "AUC", "setting": "[2]; [4]", "value": "3725 ng·h/mL and 3390 ng·h/mL and 3755 ng·h/mL and 1855 ng·h/mL and 4948 ng·h/mL and 4436 ng·h/mL and 4287 ng·h/mL"}, {"measurement": "Cmax", "setting": "[2]; [4]", "value": "84 ng/mL and 35 ng/mL and 19.8 ng/mL and 16.3 ng/mL and 34 ng/mL and 31 ng/mL and 26 ng/mL"}, {"measurement": "t½", "setting": "[2]; [4]", "value": "253 h and 117 h and 67 h and 168 h and 119 h and 140 h and 159 h"}, {"measurement": "Tmax", "setting": "[2]; male, sheep, plasma, 250 mg, male sheep, 250 mg implant into bulbourethral gland, Mean of seven sheep", "value": 9, "unit": "h"}, {"measurement": "AUC", "setting": "[2]; male, sheep, plasma, 250 mg, male sheep, 250 mg implant into bulbourethral gland, Mean of seven sheep, read-out: AUC", "value": 3770, "unit": "ng·h/mL"}, {"measurement": "Cmax", "setting": "[2]; male, sheep, plasma, 250 mg, male sheep, 250 mg implant into bulbourethral gland, Mean of seven sheep, read-out: Cmax", "value": 42, "unit": "ng/mL"}, {"measurement": "half-life", "setting": "[2]; male, sheep, plasma, 250 mg, male sheep, 250 mg implant into bulbourethral gland, Mean of seven sheep, read-out: t½ (converted)", "value": 146, "unit": "h"}, {"measurement": "half-life", "setting": "[2]; male, sheep, plasma, other: local implant into the bulbourethral gland via rectum, 250 mg, male sheep, 250 mg controlled release implant, read-out: elimination half-life (converted)", "value": "~146", "unit": "h"}, {"measurement": "androgen dependent side effect", "setting": "[3]; 250 mg implant into bulbourethral gland", "value": "no androgen dependent side effect observed"}, {"measurement": "macroscopic effect on the androgen dependent tissue (bulbourethral gland)", "setting": "[3]; single intra-gland injection of 250 mg implant", "value": "decreased volume and weight"}, {"measurement": "diarrhea", "setting": "prostate tissue; [5]", "value": "no diarrhea observed"}, {"measurement": "effect of the treatment on the urinated volume", "setting": "prostate tissue; [5]", "value": "no effect"}, {"measurement": "side-effects", "setting": "prostate tissue; [5]", "value": "no side-effects were observed"}, {"measurement": "microscopic findings of the prostate tissue (histopathology)", "setting": "prostate tissue; treated groups, local prostate implant", "value": "increased incidence of vacuolation and cystic acini"}]}
